For test [1], the target named is Trace amine-associated receptor 1 (Rattus norvegicus, UniProt Q923Y9). In words: Nonspecific binding was defined as the amount of 3-[H]-(S)-4-[(ethyl-phenyl-amino)-methyl]-4,5-dihydro-oxazol-2-ylamine bound in the presence of 10 uM unlabeled ligand. All compounds were tested at a broad range of concentrations (10 pM to 10 uM) in duplicates. The test compounds (20 ul/well) were transferred into a 96 deep well plate (TreffLab), and 180 ul of HEPES-NaOH (20 mM, pH 7.4) containing MgCl2 (10 mM) and CaCl2 (2 mM) (binding buffer), 300 ul of the radioligand 3[H](S)-4-[(ethyl-phenyl-amino)-methyl]-4,5-dihydro-oxazol-2-ylamine at a concentration of 3.3Kd in nM. It is filed as cell membranes.

In test [2] the target is Trace amine-associated receptor 1 (Mus musculus, UniProt Q923Y8). Kind of test: Radioligand Binding: The TAAR1 radioligand 3[H](S)-4-[(ethyl-phenyl-amino)-methyl]-4,5-dihydro-oxazol-2-ylamine (described in WO 2008/098857) was used at a concentration equal to the calculated Kd value, that was usually around 0.7 nM, resulting in the binding of approximately 0.5% of the radioligand and a specific binding representing approximately 70% of the total binding. Nonspecific binding was defined as the amount of 3[H](S)-4-[(ethyl-phenyl-amino)-methyl]-4,5-dihydro-oxazol-2-ylamine bound in the presence of 10 uM unlabeled ligand. All compounds were tested at a broad range of concentrations ([…]) in duplicates.

The text below walks through data of ChEMBL document CHEMBL3638918, “Pyrazole derivatives” (2015).

Trace amine-associated receptor 1 (Mus musculus, UniProt Q923Y8), sequence (Q923Y8 whole entry): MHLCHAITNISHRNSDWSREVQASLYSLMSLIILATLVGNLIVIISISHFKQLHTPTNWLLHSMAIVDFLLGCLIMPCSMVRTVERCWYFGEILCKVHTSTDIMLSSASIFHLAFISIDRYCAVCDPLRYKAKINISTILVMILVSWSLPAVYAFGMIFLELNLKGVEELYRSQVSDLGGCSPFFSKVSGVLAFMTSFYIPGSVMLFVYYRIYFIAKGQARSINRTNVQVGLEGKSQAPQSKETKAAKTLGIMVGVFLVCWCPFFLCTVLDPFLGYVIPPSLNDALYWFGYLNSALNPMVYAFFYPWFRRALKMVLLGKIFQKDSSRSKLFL
Trace amine-associated receptor 1 (Rattus norvegicus, UniProt Q923Y9), sequence (Q923Y9 whole entry): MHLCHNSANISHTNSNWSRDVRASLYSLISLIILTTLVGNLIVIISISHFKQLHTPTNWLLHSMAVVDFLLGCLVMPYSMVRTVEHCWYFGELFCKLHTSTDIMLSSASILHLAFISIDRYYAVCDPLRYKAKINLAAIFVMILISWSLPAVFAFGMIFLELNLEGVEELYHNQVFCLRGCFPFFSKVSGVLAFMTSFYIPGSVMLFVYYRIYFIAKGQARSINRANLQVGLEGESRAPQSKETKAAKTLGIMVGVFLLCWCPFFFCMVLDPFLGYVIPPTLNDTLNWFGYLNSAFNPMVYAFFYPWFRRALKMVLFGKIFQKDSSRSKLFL

In the case of `COc1cccc(-c2cc(C(=O)Nc3ccc([C@H]4CNCCO4)cc3)n(C)n2)c1`, the Ki (usually the dissociation constant of the complex between target and ligand, obtained from inhibition or displacement) in test [1] was 8.8 nM; in test [2], 6.4 nM.
